Data published in paper PMC4460250, “Systems Pharmacology Dissecting Holistic Medicine for Treatment of Complex Diseases: An Example Using Cardiocerebrovascular Diseases Treated by TCM” (Evidence-based Complementary and Alternative Medicine : eCAM, 2015).

Key:
[1] = in vivo
[2] = in vivo; cited from earlier work

Structure (SMILES) | Class(High: HIA value ≥0.7; Low: HIA value < 0.7) [1] | HIA(Human Intestinal Absorption) [2]
CC(=O)Nc1ccc(OC[C@H](O)CNC(C)C)cc1 [Practolol(R)] | High (key: High: HIA value ≥0.7; Low: HIA value < 0.7) | 0.95
CC(=O)Nc1ccc(OC[C@@H](O)CNC(C)C)cc1 [Practolol(S)] | High (key: High: HIA value ≥0.7; Low: HIA value < 0.7) | 0.95
CCCN[C@H]1CCc2nc(N)sc2C1 [Pramipexole(S)] | High (key: High: HIA value ≥0.7; Low: HIA value < 0.7) | 0.8
O[C@@](CCN1CCCC1)(c1ccccc1)C1CCCCC1 [Procyclidine(R)] | High (key: High: HIA value ≥0.7; Low: HIA value < 0.7) | 1
C[C@H](CN1c2ccccc2Sc2ccccc21)N(C)C [Promethazine(R)] | High (key: High: HIA value ≥0.7; Low: HIA value < 0.7) | 0.95
C[C@@H](CN1c2ccccc2Sc2ccccc21)N(C)C [Promethazine(S)] | High (key: High: HIA value ≥0.7; Low: HIA value < 0.7) | 0.95
CC(C)c1cccc(C(C)C)c1O [Propofol] | High (key: High: HIA value ≥0.7; Low: HIA value < 0.7) | 1
C[C@@H](O)Cn1cnc2c1c(=O)n(C)c(=O)n2C [Proxyphylline(R)] | High (key: High: HIA value ≥0.7; Low: HIA value < 0.7) | 1
C[C@H](O)Cn1cnc2c1c(=O)n(C)c(=O)n2C [Proxyphylline(S)] | High (key: High: HIA value ≥0.7; Low: HIA value < 0.7) | 1
C=CCC1(C(C)CCC)C(=O)NC(=O)NC1=O (stereo not drawn) [Quinalbarbitone] | High (key: High: HIA value ≥0.7; Low: HIA value < 0.7) | 0.9
CCOC(=O)[C@H](CCc1ccccc1)N[C@@H](C)C(=O)N1[C@H](C(=O)O)C[C@@H]2CCC[C@@H]21 [Ramipril] | Low (key: High: HIA value ≥0.7; Low: HIA value < 0.7) | 0.6
CCN1CCC[C@H]1CNC(=O)c1c(OC)ccc(Br)c1OC [Remoxipride(S)] | High (key: High: HIA value ≥0.7; Low: HIA value < 0.7) | 1
CCOc1cc(CC(=O)N[C@@H](CC(C)C)c2ccccc2N2CCCCC2)ccc1C(=O)O [Repaglinide(S)] | High (key: High: HIA value ≥0.7; Low: HIA value < 0.7) | 1
Cn1c(=O)c2c(ncn2CCCNC[C@H](O)c2cc(O)cc(O)c2)n(C)c1=O [Reproterol(R)] | Low (key: High: HIA value ≥0.7; Low: HIA value < 0.7) | 0.6
Cn1c(=O)c2c(ncn2CCCNC[C@@H](O)c2cc(O)cc(O)c2)n(C)c1=O [Reproterol(S)] | Low (key: High: HIA value ≥0.7; Low: HIA value < 0.7) | 0.6
CCN(C)C(=O)Oc1cccc([C@H](C)N(C)C)c1 [Rivastigmine] | High (key: High: HIA value ≥0.7; Low: HIA value < 0.7) | 0.98
C#CCN(C)[C@H](C)Cc1ccccc1 [Selegiline(R)] | High (key: High: HIA value ≥0.7; Low: HIA value < 0.7) | 1
CC(C)C[C@@H](N(C)C)C1(c2ccc(Cl)cc2)CCC1 [Sibutramine(R)] | High (key: High: HIA value ≥0.7; Low: HIA value < 0.7) | 0.77
CC(C)C[C@H](N(C)C)C1(c2ccc(Cl)cc2)CCC1 [Sibutramine(S)] | High (key: High: HIA value ≥0.7; Low: HIA value < 0.7) | 0.77
CC(C)NC[C@H](O)c1ccc(NS(C)(=O)=O)cc1 [Sotalol(R)] | High (key: High: HIA value ≥0.7; Low: HIA value < 0.7) | 0.95
CC(C)NC[C@@H](O)c1ccc(NS(C)(=O)=O)cc1 [Sotalol(S)] | High (key: High: HIA value ≥0.7; Low: HIA value < 0.7) | 0.95
Cc1cc(C)nc(NS(=O)(=O)c2ccc(N)cc2)n1 [Sulfamethazine] | High (key: High: HIA value ≥0.7; Low: HIA value < 0.7) | 0.95
CCN1CCCC1CNC(=O)c1cc(S(N)(=O)=O)ccc1OC (stereo not drawn) [Sulpiride] | Low (key: High: HIA value ≥0.7; Low: HIA value < 0.7) | 0.44
CCN1CCC[C@@H]1CNC(=O)c1cc(S(=O)(=O)CC)ccc1OC [Sultopride(R)] | High (key: High: HIA value ≥0.7; Low: HIA value < 0.7) | 0.89

Structure (SMILES) | Class(High: HIA value ≥0.7; Low: HIA value < 0.7) [1] | HIA(Human Intestinal Absorption) [2]
CCN1CCC[C@H]1CNC(=O)c1cc(S(=O)(=O)CC)ccc1OC [Sultopride(S)] | High (key: High: HIA value ≥0.7; Low: HIA value < 0.7) | 0.89
COc1cc2nc(N3CCN(C(=O)[C@H]4CCCO4)CC3)nc(N)c2cc1OC [Terazosin(R)] | High (key: High: HIA value ≥0.7; Low: HIA value < 0.7) | 0.91
COc1cc2nc(N3CCN(C(=O)[C@@H]4CCCO4)CC3)nc(N)c2cc1OC [Terazosin(S)] | High (key: High: HIA value ≥0.7; Low: HIA value < 0.7) | 0.91
CC(C)(C)NC[C@H](O)c1cc(O)cc(O)c1 [Terbutaline(R)] | Low (key: High: HIA value ≥0.7; Low: HIA value < 0.7) | 0.63
CC(C)(C)NC[C@@H](O)c1cc(O)cc(O)c1 [Terbutaline(S)] | Low (key: High: HIA value ≥0.7; Low: HIA value < 0.7) | 0.63
CC(C)(C)c1ccc([C@H](O)CCCN2CCC(C(O)(c3ccccc3)c3ccccc3)CC2)cc1 [Terfenadine(R)] | High (key: High: HIA value ≥0.7; Low: HIA value < 0.7) | 1
CC(C)(C)c1ccc([C@@H](O)CCCN2CCC(C(O)(c3ccccc3)c3ccccc3)CC2)cc1 [Terfenadine(S)] | High (key: High: HIA value ≥0.7; Low: HIA value < 0.7) | 1
C[C@]12CC[C@H]3[C@@H](CCC4=CC(=O)CC[C@@]43C)[C@@H]1CC[C@@H]2O [Testosterone] | High (key: High: HIA value ≥0.7; Low: HIA value < 0.7) | 1
CCCCCc1cc(O)c2c(c1)OC(C)(C)[C@@H]1CCC(C)=C[C@@H]21 [Tetrahydrocannabinol] | High (key: High: HIA value ≥0.7; Low: HIA value < 0.7) | 0.93
CCOC(=O)C1(c2ccccc2)CCC=CC1N(C)C (stereo not drawn) [Tilidine] | High (key: High: HIA value ≥0.7; Low: HIA value < 0.7) | 1
CC(C)(C)NC[C@H](O)COc1nsnc1N1CCOCC1 [Timolol(S)] | High (key: High: HIA value ≥0.7; Low: HIA value < 0.7) | 0.95
Cc1cccc(C)c1NC(=O)[C@@H](C)N [Tocainide(R)] | High (key: High: HIA value ≥0.7; Low: HIA value < 0.7) | 1
Cc1cccc(C)c1NC(=O)[C@H](C)N [Tocainide(S)] | High (key: High: HIA value ≥0.7; Low: HIA value < 0.7) | 1
COc1cccc(C2(O)CCCCC2CN(C)C)c1 (stereo not drawn) [Tramadol] | High (key: High: HIA value ≥0.7; Low: HIA value < 0.7) | 0.9
O[C@@](CCN1CCCCC1)(c1ccccc1)C1CCCCC1 [Trihexyphenidyl(R)] | High (key: High: HIA value ≥0.7; Low: HIA value < 0.7) | 1
O[C@](CCN1CCCCC1)(c1ccccc1)C1CCCCC1 [Trihexyphenidyl(S)] | High (key: High: HIA value ≥0.7; Low: HIA value < 0.7) | 1
C[C@H](CN(C)C)CN1c2ccccc2Sc2ccccc21 [Trimeprazine(R)] | High (key: High: HIA value ≥0.7; Low: HIA value < 0.7) | 0.8
C[C@@H](CN(C)C)CN1c2ccccc2Sc2ccccc21 [Trimeprazine(S)] | High (key: High: HIA value ≥0.7; Low: HIA value < 0.7) | 0.8
C[C@H](CN(C)C)CN1c2ccccc2CCc2ccccc21 [Trimipramine(R)] | High (key: High: HIA value ≥0.7; Low: HIA value < 0.7) | 0.8
C[C@@H](CN(C)C)CN1c2ccccc2CCc2ccccc21 [Trimipramine(S)] | High (key: High: HIA value ≥0.7; Low: HIA value < 0.7) | 0.8
O=C(O[C@H]1C[C@H]2CC[C@@H](C1)[N+]21CCCC1)C(O)(c1ccccc1)c1ccccc1 [Trospium_chloride] | Low (key: High: HIA value ≥0.7; Low: HIA value < 0.7) | 0.1
CCCCC(=O)N(Cc1ccc(-c2ccccc2-c2nnn[nH]2)cc1)[C@H](C(=O)O)C(C)C [Valsartan(S)] | Low (key: High: HIA value ≥0.7; Low: HIA value < 0.7) | 0.55
COc1ccc([C@H](CN(C)C)C2(O)CCCCC2)cc1 [Venlafaxine(R)] | High (key: High: HIA value ≥0.7; Low: HIA value < 0.7) | 0.95
COc1ccc([C@@H](CN(C)C)C2(O)CCCCC2)cc1 [Venlafaxine(S)] | High (key: High: HIA value ≥0.7; Low: HIA value < 0.7) | 0.95
